Test results reported in publication PMC8165160, “Substrate Specificities and Inhibition Pattern of the Solute Carrier Family 10 Members NTCP, ASBT and SOAT” (Frontiers in Molecular Biosciences, 2021).
pIC50: −log10 of the molar value. Like-named read-outs stand apart in the source and are kept apart here.

Assays:
[1] = molecular target: T1, SOAT (Homo sapiens, UniProt Q3KNW5); experiment: Transport inhibition in SOAT-HEK293 cells; type: cell-based; conditions: triterpenoid inhibitors, 10 min after 5 min preincubation
T1 construct: The full-length open reading frames of NTCP, ASBT, and SOAT were cloned; expressed in transfected cells; host or cells: Flp-In T-REX HEK293 (SOAT-HEK293), tetracycline-induced
T1 sequence (Q3KNW5 1-377): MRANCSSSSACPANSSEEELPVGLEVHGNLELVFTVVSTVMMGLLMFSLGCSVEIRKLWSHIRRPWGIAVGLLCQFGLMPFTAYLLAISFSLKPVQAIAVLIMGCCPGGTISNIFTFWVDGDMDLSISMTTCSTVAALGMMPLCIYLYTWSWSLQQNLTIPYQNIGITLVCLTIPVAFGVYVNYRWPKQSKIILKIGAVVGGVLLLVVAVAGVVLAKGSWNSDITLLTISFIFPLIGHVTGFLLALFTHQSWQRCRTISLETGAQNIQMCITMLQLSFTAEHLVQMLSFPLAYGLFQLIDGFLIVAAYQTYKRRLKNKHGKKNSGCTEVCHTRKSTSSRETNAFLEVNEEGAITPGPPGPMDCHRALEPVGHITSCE
Procedure: (§1) Cells were washed three times with PBS and were preincubated with the respective inhibitor in sodium transport buffer for 5 min at 37°C. Uptake was initiated by adding the respective radiolabeled substrate to the well and incubating for a fixed time as indicated in the figures at 37°C. Transport was terminated by removing the transport buffer and washing five-times with ice-cold PBS. Cell monolayers were lysed in 1 N NaOH with 0.1% SDS and the cell-associated radioactivity and protein content was determined as described above. For uptake inhibition with the myr-preS1 peptide the sodium transport buffer contained additionally MEM-amino acid solution (ThermoFisher) at 1:50 dilution.
(§2) All transport or inhibition graphs were generated with GraphPad Prism 6.0 (GraphPad). Determination of IC50 values was done by nonlinear regression analysis using the equation log (inhibitor) vs. response settings. If not stated otherwise in the legends all data represent means ± SD of at least triplicate determinations of representative experiments.
(§3) FIGURE 3 Inhibition of NTCP, ASBT, and SOAT with substrate inhibitors. Transport of [^3H]TC, [^3H]TLC, and [^3H]DHEAS was analyzed in NTCP-HEK293, ASBT-HEK293, and SOAT-HEK293 cells in the presence of the substrate inhibitors TC, TLC, and DHEAS at increasing concentrations ranging from 100 nM till 1000 µM. After 5 min of preincubation with the respective inhibitory compound, 200 nM [^3H]TLC, [^3H]TC or [^3H]DHEAS were added for additional 1 min and the cell lysates were analyzed by liquid scintillation counting. Unspecific uptake of HEK293-FlpIn cells was set to 0%. Carrier-specific uptake without inhibitor was set to 100%.
(§4) Transport of [^3H]TC, [^3H]TLC, and [^3H]DHEAS was analyzed in NTCP-HEK293, ASBT-HEK293, and SOAT-HEK293 cells in the presence of different supposed non-substrate triterpenoid inhibitors as indicated at increasing concentrations ranging from 100 nM till 1000 µM. After 5 min of preincubation with the respective inhibitory compound, 1 µM [^3H]TLC, [^3H]TC or [^3H]DHEAS were added for additional 10 min at 37°C and the cell lysates were analyzed by liquid scintillation counting. Experiments performed without inhibitor were set to 100%. Means of negative controls were subtracted to calculate net transport rates (expressed as percentage of control). Data represent means ± SD of quadruplicate determinations of representative experiments.

[2] = molecular target: T2, NTCP (Homo sapiens, UniProt Q14973); experiment: Transport inhibition in NTCP-HEK293 cells
T2 sequence (Q14973 1-349): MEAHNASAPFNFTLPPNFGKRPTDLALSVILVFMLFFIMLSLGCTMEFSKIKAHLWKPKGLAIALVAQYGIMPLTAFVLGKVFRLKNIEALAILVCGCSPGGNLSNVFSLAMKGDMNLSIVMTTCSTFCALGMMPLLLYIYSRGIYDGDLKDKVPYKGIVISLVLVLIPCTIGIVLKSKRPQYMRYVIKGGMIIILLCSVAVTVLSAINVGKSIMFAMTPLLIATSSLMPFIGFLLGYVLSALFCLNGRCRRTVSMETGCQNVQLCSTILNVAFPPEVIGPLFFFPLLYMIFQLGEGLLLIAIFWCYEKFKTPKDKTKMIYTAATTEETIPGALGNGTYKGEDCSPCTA

[3] = molecular target: T3, ASBT (Homo sapiens, UniProt Q12908); experiment: Transport inhibition in ASBT-HEK293 cells; type: cell-based; conditions: triterpenoid inhibitors, 10 min after 5 min preincubation
T3 construct: The full-length open reading frames of NTCP, ASBT, and SOAT were cloned; expressed in transfected cells; host or cells: Flp-In T-REX HEK293 (ASBT-HEK293), tetracycline-induced
T3 sequence (Q12908 1-348): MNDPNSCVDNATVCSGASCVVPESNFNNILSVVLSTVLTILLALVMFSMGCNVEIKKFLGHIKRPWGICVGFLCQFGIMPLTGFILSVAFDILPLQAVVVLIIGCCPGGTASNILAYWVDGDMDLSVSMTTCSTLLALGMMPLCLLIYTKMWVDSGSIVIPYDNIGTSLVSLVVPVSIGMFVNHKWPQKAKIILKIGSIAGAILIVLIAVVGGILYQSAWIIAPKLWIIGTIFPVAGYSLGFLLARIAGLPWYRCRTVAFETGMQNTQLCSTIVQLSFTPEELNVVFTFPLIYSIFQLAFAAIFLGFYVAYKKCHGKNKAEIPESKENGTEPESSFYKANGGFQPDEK
Procedure: as §1, §2, §3, §4

[4] = test system: HDV; conditions: in vitro; ref Kirstgen et al., 2020; cited from earlier work
[5] = molecular target: T1, SOAT; experiment: Substrate screening: sodium-dependent uptake of radiolabeled compounds in SOAT-HEK293 cells; type: cell-based; conditions: radiolabeled steroid compounds 200 nM, 10 min, SOAT-HEK293, vs sodium-free control
Procedure: (§5) Stably SLC10 transporter transfected NTCP-HEK293, ASBT-HEK293, SOAT-HEK293 cells and the HEK293-FlpIn maternal cell line were seeded on 24-well plates (if not stated otherwise for individual assays). Well plates were coated with poly-D-lysine prior to seeding of 125,000 cells per well. Cells were grown with 1 ml of standard medium per well with or without tetracycline ([…]) for 72 h to induce carrier expression before respective assays were started. HEK293-FlpIn cells were cultivated with standard medium and served as control.
(§6) Uptake experiments were initiated by replacing the preincubation buffer by 500 μL transport buffer containing the radiolabeled test compound and were performed at 37°C. Transport was terminated by removing the transport buffer and washing five-times with ice-cold PBS. Cell monolayers were lysed in 1 N NaOH with 0.1% SDS and the cell-associated radioactivity was determined by liquid scintillation counting.
(§7) FIGURE 1 Comparative substrate screening for bile acids and sulfated steroids in NTCP-, ASBT-, and SOAT-HEK293 cells. Transport assays were performed with the indicated substrates in NTCP-HEK293, ABST-HEK293, SOAT-HEK293, and HEK293-FlpIn cells. Cells were washed and equilibrated with Na^+-containing transport buffer (filled bars) or with Na^+-free transport buffer (open bars) at 37°C. For uptake, cells were incubated with radiolabeled steroid compounds at a final concentration of 200 nM in Na^+-containing or Na^+-free transport buffer for 10 min. Radiolabeled bile acids were used at 1 µM concentrations and transport was analyzed over 30 min. HEK293-FlpIn cells served as additional controls. After the indicated time intervals, cells were washed with ice-cold PBS, lysed and subjected to liquid scintillation counting. […] 3-OH, trihydroxylated BAs; 2-OH, dihydroxylated BAs; 1-OH, monohydroxylated BAs.

[6] = molecular target: T2, NTCP; experiment: Substrate screening: sodium-dependent uptake of radiolabeled compounds in NTCP-HEK293 cells; type: cell-based; design: The full-length open reading frames of NTCP, ASBT, and SOAT were cloned; expressed in transfected cells; host or cells: Flp-In T-REX HEK293 (NTCP-HEK293), tetracycline-induced; conditions: radiolabeled steroid compounds 200 nM, 10 min, NTCP-HEK293, vs sodium-free control
Procedure: as §5, §6, §7

[7] = molecular target: T2, NTCP; experiment: Transport kinetics (concentration-dependent uptake) in NTCP-HEK293 cells; type: cell-based; design: The full-length open reading frames of NTCP, ASBT, and SOAT were cloned; expressed in transfected cells; host or cells: Flp-In T-REX HEK293 (NTCP-HEK293), tetracycline-induced; conditions: uptake via NTCP, 1 min, 37°C
Procedure: as §6
FIGURE 2 NTCP, ASBT, and SOAT transport kinetics. Concentration-dependent uptake was analyzed in NTCP-HEK293, ASBT-HEK293, and SOAT-HEK293 cells for the indicated substrates at increasing substrate concentrations. Stably transfected HEK293 cells were pretreated with 1 μg/ml tetracycline to induce carrier expression. HEK293-FlpIn cells were used as control. Uptake was analyzed for 1 min at 37°C. Afterward, the medium was removed and each cell monolayer was washed and processed to determine the protein content and cell-associated radioactivity. Specific uptake was calculated by subtracting non-specific uptake of the HEK293-FlpIn control cells (open squares) from uptake into carrier-overexpressing HEK293 cells (filled squares) and is shown by broken lines. The values represent means ± SD of duplicate experiments, each with triplicate determinations (n = 6).

[8] = molecular target: T1, SOAT; design: method as in Geyer et al. (2007); conditions: uptake via SOAT, same SOAT-HEK293 cell line; ref Geyer et al. (2007); cited from earlier work
[9] = 1 µM [3H]DHEAS, read-out: SOAT IC50, substrate [3H]DHEAS
[10] = 1 µM [3H]TLC, read-out: SOAT IC50, substrate [3H]TLC
[11] = NTCP IC50, substrate [3H]TC, triterpenoid inhibitors, 1 µM [3H]TC, 10 min after 5 min preincubation
[12] = NTCP IC50, substrate [3H]TLC, triterpenoid inhibitors, 1 µM [3H]TLC, 10 min after 5 min preincubation
[13] = 1 µM [3H]TC, read-out: ASBT IC50, substrate [3H]TC
[14] = 1 µM [3H]TLC, read-out: ASBT IC50, substrate [3H]TLC

| Molecule | pIC50 [1, 9] | pIC50 [1, 10] | pIC50 [2, 11] | pIC50 [2, 12] | pIC50 [3, 13] | pIC50 [3, 14] | anti-HDV activity in vitro [4] | Transport activity grading SOAT (mean uptake) [5] | Transport activity grading NTCP (mean uptake) [6] | Apparent K m [7] [µM] | V max [7] [pmol/mg protein/min] | Apparent K m [8] [µM] | V max [8] [pmol/mg protein/min] | further results |
| --- | --- | --- | --- | --- | --- | --- | --- | --- | --- | --- | --- | --- | --- | --- |
| C=C(C)[C@@H]1CC[C@]2(CO)CC[C@]3(C)[C@H](CC[C@@H]4[C@@]5(C)CC[C@H](OC(=O)/C=C/c6ccc(O)c(O)c6)C(C)(C)[C@@H]5CC[C@]43C)[C@@H]12 [3-O-Caffeoyl betulin] | 3.52 | 4.42 | 3.89 | 5.68 | 3.30 | 4.00 | – | – | – | – | – | – | – | pIC50 ([2]; NTCP IC50, substrate [3H]DHEAS, triterpenoid inhibitors, 1 µM [3H]DHEAS, 10 min after 5 min preincubation): 4.31 |
| C=C(C)[C@@H]1CC[C@]2(CO)CC[C@]3(C)[C@H](CC[C@@H]4[C@@]5(C)CC[C@H](O)C(C)(C)[C@@H]5CC[C@]43C)[C@@H]12 [Betulin] | – | – | – | – | – | – | – | – | – | – | – | – | – | pIC50 ([1]; SOAT IC50, substrate [3H]DHEAS, 1 µM [3H]DHEAS): 3.04; pIC50 ([1]; SOAT IC50, substrate [3H]TLC, 1 µM [3H]TLC): 4.30; pIC50 ([3]; ASBT IC50, substrate [3H]TC, 1 µM [3H]TC): < 3.00; pIC50 ([3]; ASBT IC50, substrate [3H]TLC, 1 µM [3H]TLC): 3.72 |
| C=C(C)[C@@H]1CC[C@]2(C(=O)O)CC[C@]3(C)[C@H](CC[C@@H]4[C@@]5(C)CC[C@H](O)C(C)(C)[C@@H]5CC[C@]43C)[C@@H]12 [Betulinic acid] | 5.92 | 5.02 | – | – | < 3.00 | 3.71 | anti-HDV activity | – | – | – | – | – | – | – |
| C[C@]12CC[C@@H]3c4ccc(OS(=O)(=O)O)cc4CC[C@H]3[C@@H]1CCC2=O [E1S, Estrone-3-sulfate] | – | – | – | – | – | – | – | + (Mean uptake “+” for values below 10) | ++ (“++” for values between 10 and 100) | 57.6 ± 11.3 | 2367 ± 170.8 | 12.0 ± 2.3 | 585 ± 34 | – |
| C=C(C)[C@@H]1CC[C@]2(C)CC[C@]3(C)[C@H](CC[C@@H]4[C@@]5(C)CCC(=O)C(C)(C)[C@@H]5CC[C@]43C)[C@@H]12 [Lupenone] | 3.18 | 3.91 | 3.62 | 4.93 | < 3.00 | < 3.00 | anti-HDV activity | – | – | – | – | – | – | pIC50 ([2]; NTCP IC50, substrate [3H]DHEAS): < 3.00 |
| Pregnenolone sulfate [PREGS] | – | – | – | – | – | – | – | +++ (“+++” for values above 100 pmol/mg protein/10 min for sulfated steroid hormones) | +++ (“+++” for values above 100 pmol/mg protein/10 min for sulfated steroid hormones) | 8.8 ± 2.1 | 1036 ± 69.1 | 11.3 ± 3.0 | 2168 ± 134 | – |
